This note sets out measurements from US11261213B2, “Crystalline bis- and tris-hydrochloride salt of elamipretide” (Stealth BioTherapeutics Inc., priority 2018, dated 2022).

Values after ≈ are worked out from the molar mass of the structure shown. Where a name gives a salt, the structure may show the parent alone. Read-outs that look alike come from different tables or passages of the source. Residues, ends and D or L forms follow the SMILES beside them.

Data set [1] can be described thus: physchem.
The nature of data set [2]: Gravimetric vapour sorption (GVS). In kind it is physicochemical. Here is the method: Approximately 15 mg of sample was placed into a mesh vapour sorption balance pan and loaded into an IGASorp Moisture Sorption Analyser balance by Hiden Analytical. The sample was subjected to a ramping profile from 40-90% relative humidity (RH) at 10% increments, maintaining the sample at each step until a stable weight had been achieved (98% step completion). After completion of the sorption cycle, the sample was dried using the same procedure to 0% RH, then subjected to a second ramping profile from 0-90% relative humidity. After completion of the second sorption cycle, the sample was dried using the same procedure to 0% RH, and finally taken back to the starting point of 40% RH. The weight change during the sorption/desorption cycles were plotted, allowing for the hygroscopic nature of the sample to be determined.

The nature of data set [3]: Effect of drying and humidity exposure on crystalline solid (XRPD). In kind it is physicochemical. Here is the method:
Powder x-ray diffraction (XRPD) experiments were performed on a Rigaku MiniFlex 600 equipped with a Cu Kα radiation source (wavelength of x-rays 1.54 Å), and a scintillation detector. Samples were prepared on Si zero-return wafers. Scans were performed from 2θ 4 to 30 degrees over a step size of 0.05 over thirty minutes with cathode ray tube voltage and current 40 kV and 15 mA, respectively.
The crystalline solid was dried at 50 C under vacuum overnight, and analyzed by XRPD. […] Furthermore, the dry solid was exposed to about 95% relative humidity at room temperature for 24 hours followed by XRPD analysis. […] It should be noted that 3-HCl salt of MTP-131 deliquesces at more than 70% relative humidity.

Data set [4] in a line: physchem. As to conditions: water.
Description: The solubility of the crystalline solid was assessed qualitatively in water.

Take `Cc1cc(O)cc(C)c1C[C@H](NC(=O)[C@H](N)CCCNC(=N)N)C(=O)N[C@@H](CCCCN)C(=O)N[C@@H](Cc1ccccc1)C(N)=O` [MTP-131 HCl] (HELM PEPTIDE1{[dR].[Cc1cc(O)cc(C)c1C[C@H](N[*:1])C(=O)[*:2]].K.F.[am]}$$$$V2.0): the solubility (usually how much of the substance goes into solution per volume) in data set [1] is ≤ 10000 µg/mL; in data set [1] (2-Propanol, Solubility at 50° C.), < 10000 µg/mL; in data set [1] (2-Propanol:Water (95:5 v/v), Solubility at 50° C., 2-Propanol:Water (95:5 v/v)), < 10000 µg/mL; in data set [1] (2-Propanol:Water (99:1 v/v), Solubility at 50° C., 2-Propanol:Water (99:1 v/v)), < 10000 µg/mL; in data set [1] (Acetone, Solubility at 50° C.) it was < 10000 µg/mL; in data set [1] (Acetone:Water (95:5 v/v), Solubility at 50° C., Acetone:Water (95:5 v/v)), < 10000 µg/mL. The solubility in data set [1] (Acetonitrile:DMSO (85:15 v/v), Solubility at 50° C., Acetonitrile:DMSO (85:15 v/v)) is < 10000 µg/mL; in data set [1] (Acetonitrile:Water (95:5 v/v), Solubility at 50° C., Acetonitrile:Water (95:5 v/v)), < 10000 µg/mL; in data set [1] (Acetonitrile:Water (99:1 v/v), Solubility at 50° C., Acetonitrile:Water (99:1 v/v)), < 10000 µg/mL; in data set [1] (DCM:DMSO (85:15 v/v), Solubility at 50° C., DCM:DMSO (85:15 v/v)), < 10000 µg/mL; in data set [1] (Dichloromethane, Solubility, carried out at 35° C. (footnote)), < 10000 µg/mL; in data set [1] (Ethanol, Solubility at 50° C.), 10000 µg/mL. Besides, the solubility in data set [1] (Ethanol:DMSO (95:5% v/v), Solubility at 50° C., Ethanol:DMSO (95:5% v/v)) is ~33000 µg/mL; in data set [1] (Ethanol:Water (95:5 v/v), Solubility at 50° C., Ethanol:Water (95:5 v/v)), ~67000 µg/mL; in data set [1] (Methanol, Solubility at 50° C.) it was > 200000 µg/mL; in data set [1] (Methanol:Water (95:5 v/v), Solubility at 50° C., Methanol:Water (95:5 v/v)), > 200000 µg/mL; in data set [1] (THF:Water (95:5% v/v), Solubility at 50° C., THF:Water (95:5% v/v), (separated)), < 10000 µg/mL; in data set [1] (THF:Water (99:1 v/v), Solubility at 50° C., THF:Water (99:1 v/v)), < 10000 µg/mL. Besides, the solubility in data set [1] (Trifluoroethanol, Solubility at 50° C.) is < 10000 µg/mL. Moreover, the “Hygroscopicity by GVS” value in data set [2] is “highly hygroscopic”. Moreover, in data set [2] (between 40-90% RH), the GVS mass increase entry is recorded as “ca. 30%”. Also, the “State of solid after GVS” value in data set [2] (ramping up to 90% RH) was “deliquesced and adhered to the basket”. The “Relative humidity at which the salt deliquesces” value in data set [3] was “more than 70 % relative humidity”.

`Cc1cc(O)cc(C)c1C[C@H](NC(=O)[C@H](N)CCCNC(=N)N)C(=O)N[C@@H](CCCCN)C(=O)N[C@@H](Cc1ccccc1)C(N)=O` [crystalline solid] (HELM PEPTIDE1{[dR].[Cc1cc(O)cc(C)c1C[C@H](N[*:1])C(=O)[*:2]].K.F.[am]}$$$$V2.0): the “Physical integrity after humidity exposure” value in data set [3] (about 95% relative humidity, room temperature, 24 hours) is listed as “physically kept its integrity”. Moreover, the “XRPD pattern after drying (stability upon drying)” value in data set [3] (dried at 50 C under vacuum overnight) is recorded as “No changes were observed”. Besides, the “XRPD after humidity exposure” value in data set [3] (dry solid, about 95% relative humidity, room temperature, 24 hours) is “remained unchanged”. Further, in data set [4], the solubility was ~60000 µg/mL (≈ 93.8 mM).
